In patent US9682130B2 (priority 2015, dated 2017):
≈ marks a conversion by molar mass, not a printed value. Where two headings read alike, the source gives them in different places.

Columns and labels:
Adenovirus serotype Ad5 = test: Ad5/NZW rabbit ocular replication model, plaque assay of ocular samples; type: in vivo; settings: 0.5% Cidofovir, twice daily 7 days
Procedure: See, e.g., Romanowski, et al., The In Vitro and In Vivo Evaluation of ddC as a Topical Antiviral for Ocular Adenovirus Infections, Invest. Ophthalmol. Vis. Sci. 50: 5295-5299 (2009), which is hereby incorporated by reference in its entirety.
(§1) To conduct this in vivo assay, 25 NZW rabbit were anesthetized using the general anesthesia ketamine and xylazine and the topical anesthesia proparacaine. Each rabbit was then topically inoculated with 50 μL of Adenovirus serotype Ad5 (3×10^7 pfu/mL) in both eyes after corneal epithelial scarification (12 cross-hatched strokes of a 25 sterile needle). Eyes were closed and gently rubbed for 5 seconds to ensure contact of the virus on all ocular surfaces. […] All topical solutions (37 μL drops) were instilled with an electronic pipette (EDP; Rainin, Oakland, Calif.) set in the multi-dispense mode. Ocular swabbing to recover adenovirus from tear film and corneal and conjunctival surfaces, after topical anesthesia with proparacaine, was performed at least 1 hour after the final dose on days 0, 1, 3, 4, 5, 7, 9, 11, and 14 after inoculation. The ocular samples from each eye was placed individually into tubes containing 1 mL of medium and were frozen at −70° C. pending viral plaque assay.
The ocular samples were assayed for Ad5 titers by performing a plaque reduction assay. Samples were diluted 1:10 and these dilutions were inoculated onto duplicate wells of a 24 well multi-plate containing A549 monolayers. The virus was adsorbed for 3 hours at 37° C. in a 5% CO2-water vapor atmosphere without constant rocking. After adsorption, 1 mL of medium plus 0.5% methylcellulose was added to each well, and the plates were incubated at 37° C. in a 5% CO2-water vapor atmosphere. After 7 days, the cells were stained with 0.5% gentian violet, and the number of plaques counted using a dissecting microscope (25×). The viral titers were then calculated, and will be expressed as plaque-forming units per milliliter (PFU/mL). Data from the study were analyzed using analysis of variance (ANOVA) with Fisher's pair-wise comparisons and X^2 analyses using True Epistat and/or Minitab statistical software. Significance was established at the P≦0.05 confidence level.

[1] = Eye irritation, Draize scale (MMTS), Ad5/NZW rabbit ocular model; type: in vivo; settings: NZW, rabbit, in vivo
Procedure: as §1, with “surfaces. Inoculation of both eyes allowed for the reduction in the number of animals needed without jeopardizing statistical validity.” for “surfaces.”
The animals were assayed for eye irritation using a Draize scale for ocular lesions. Classification of eye irritation was evaluated for both eyes of each rabbit on day 3 and day 9 using the maximum mean total score (MMTS; Table 4). See, e.g., Kay and Calandra, Interpretation of Eye Irritation Tests, J. Soc. Cos. Chem. 13: 281-289 (1962), the content of which is hereby incorporated by reference in its entirety. The MMTS score used was as follows: 0.0-0.5, Non-Irritating (N); 0.6-2.5, Practically Non-Irritating (PN); 2.6-15.0, Minimally Irritating (M1); 15.1-25.0, Mildly Irritating (M2); 25.1-50.0, Moderately Irritating (M3); 50.1-80.0, Severely Irritating (S); 80.1-100.0, Extremely Irritating (E); and 100.1-110.0, Maximally Irritating (Mx).

in vitro = settings: African green monkey
[2] = test system: Human Adenovirus 8 (Ad8 strain 13306); test: CPE reduction assay, Adenovirus 8; type: cell-based; settings: MA104; Adenovirus 8, MA-104 cells
Procedure: (§2) To assess in vitro cytotoxicity, both a cytopathic effects of a virus (CPE) regression assay and a neutral red lysosomal uptake cell viability assay was performed essentially as described in, e.g., Repetto, et al., Neutral Red Uptake Assay for the Estimation of Cell Viability/Cytotoxicity, Nat. Protoc. 3: 1125-1131 (2008), the content of which is hereby incorporated by reference in its entirety. Ninety-six-well plates were seeded with MA-104 cells at 1×10^5 cells/mL and incubated overnight at 37° C. with 5% CO2. […] Each dilution was added to 5 wells of a 96-well plate with 80% to 100% confluent cells, and three wells of each dilution were then infected with one of the two test viruses. Two wells remained uninfected as controls for toxicity. Six wells per plate were set aside as uninfected, untreated cell controls, and six wells per plate were infected with no treatment as virus controls. […] Assay plates were incubated at 37° C. with 5% CO2. […] After CPE reduction assay was completed, a neutral red lysosomal uptake assay was conducted by filling each well with 0.011% (m/v) neutral red, a vital stain. The plates then were incubated for about 2 hours at 37° C. in the dark. […] The plates were then read on a spectrophotometer at 540 nm to quantify the neutral red taken up by the healthy cells. […]

[3] = test system: Human Adenovirus 8 (Ad8 strain 13306); test: Neutral red lysosomal uptake assay, Adenovirus 8; type: cell-based; settings: MA104; Adenovirus 8, MA-104 cells
Procedure: as §2

MA-104 cells = settings: African green monkey
[4] = test system: Human Adenovirus 5 (AD5 strain NYS #98-1836); test: microbe, parasite or virus in culture; type: cell-based; settings: Human mastadenovirus C, MA104, Adenovirus 5, MA-104 cells
Procedure: To assess in vitro cytotoxicity, both a cytopathic effects of a virus (CPE) regression assay and a neutral red lysosomal uptake cell viability assay was performed essentially as described in, e.g., Repetto, et al., Neutral Red Uptake Assay for the Estimation of Cell Viability/Cytotoxicity, Nat. Protoc. 3: 1125-1131 (2008), the content of which is hereby incorporated by reference in its entirety. Ninety-six-well plates were seeded with MA-104 cells at 1×10^5 cells/mL and incubated overnight at 37° C. with 5% CO2. […] Each dilution was added to 5 wells of a 96-well plate with 80% to 100% confluent cells, and three wells of each dilution were then infected with one of the two test viruses. Two wells remained uninfected as controls for toxicity. Six wells per plate were set aside as uninfected, untreated cell controls, and six wells per plate were infected with no treatment as virus controls. […] Assay plates were incubated at 37° C. with 5% CO2. […] After CPE reduction assay was completed, a neutral red lysosomal uptake assay was conducted by filling each well with 0.011% (m/v) neutral red, a vital stain. The plates then were incubated for about 2 hours at 37° C. in the dark. The unincorporated neutral red solution was removed from the wells and the incorporated dye was then eluted by adding Sorensen's citrate-buffered ethanol. The plates were then read on a spectrophotometer at 540 nm to quantify the neutral red taken up by the healthy cells. The optical density of test wells was converted to percent of cell control and normalized to the virus controls.
The concentration of test compound required to inhibit CPE by 50% or reduce red uptake into cells by 50% (EC50) was calculated by regression analysis. The toxicity of the compound without virus present was similarly calculated using the uninfected wells treated with test compounds compared with untreated cell controls. The concentration of compound that would cause 50% cytotoxic effects in the absence of virus (CC50) was estimated by linear regression analysis. The selectivity index (SI) is the CC50 divided by EC50.

## Nc1ccn(C[C@@H](CO)OCP(=O)(O)O)c(=O)n1 [CDV, Cidofovir, reference compound]
Adenovirus serotype Ad5
  Ad5-positive ocular samples, percent, Day 1: 100%
  Ad5-positive ocular samples, percent, Day 3: 100%
  Ad5-positive ocular samples, percent, Day 4: 100%
  Ad5-positive ocular samples, percent, Day 5: 100%
  Ad5-positive ocular samples, percent, Day 7: 63%
  Ad5-positive ocular samples, percent, Day 11: 0%
  Ad5-positive ocular samples, percent, Day 14: 0%
  Ad5-positive ocular samples, percent, Total: 66.1%
  Ad5-positive ocular samples/total eyes, Day 1: 8/8
  Ad5-positive ocular samples/total eyes, Day 3: 8/8
  Ad5-positive ocular samples/total eyes, Day 4: 8/8
  Ad5-positive ocular samples/total eyes, Day 5: 8/8
  Ad5-positive ocular samples/total eyes, Day 7: 5/8
  Ad5-positive ocular samples/total eyes, Day 11: 0/8
  Ad5-positive ocular samples/total eyes, Day 14: 0/8
  Ad5-positive ocular samples/total eyes, Total: 37/56
[1]; 3 day
  Ocular irritation MMTS score, Day 3: 5.9
[1]; 9 day
  Ocular irritation MMTS score, Day 9: 27.5

## Nc1ccn([C@H]2CC[C@@H](CO)O2)c(=O)n1 [ddC, 2′, 3′-Dideoxycytidine]
In vitro
  CC50: < 5000 µg/mL
[2]
  EC50: 2.1 µg/mL (≈ 9.94 µM)
[3]
  EC50: 2.7 µg/mL (≈ 12.8 µM)
MA-104 cells
  CPE Reduction Assay CC50: <5000 µg/mL
  Neutral Red Assay CC50: <5000 µg/mL
[4]; read-out: CPE Reduction Assay EC50
  EC50: 2.1 µg/mL (≈ 9.94 µM)
[4]; read-out: Neutral Red Assay EC50
  EC50: 2.7 µg/mL (≈ 12.8 µM)
